Tests used:
cyclooxygenase = target: T1, cyclooxygenase (Homo sapiens, UniProt P23219); test: Test (b): heparinised human blood challenged with A23187, TxB2 radioimmunoassay; format: cell-based
T1 construct: heparinised human blood, prior to challenge with the calcium ionophore A23187; endogenous in cells; host or cells: heparinised human whole blood (platelets and other blood cells, A23187-challenged)
Experimental: (§1) (b) An in vitro assay system involving incubating a test compound with heparinised human blood, prior to challenge with the calcium ionophore A23187 and then indirectly measuring the inhibitory effects on 5-LO by assaying the amount of LTB4 using the specific radioimmunoassay described by Carey and Forder (F. Carey and R. A. Forder, Brit. J. Pharmacol. 1985, 84, 34P) which involves the use of a protein-LTB4 conjugate produced using the procedure of Young et alia (Prostaglandins, 1983, 26(4), 605-613). The effects of a test compound on the enzyme cyclooxygenase (which is involved in the alternative metabolic pathway for arachidonic acid and gives rise to prostaglandins, thromboxanes and related metabolites) may be measured at the same time using the specific radioimmunoassay for thromboxane B2 (TxB2) described by Carey and Forder (see above). This test provides an indication of the effects of a test compound against 5-LO and also cyclooxygenase in the presence of blood cells and proteins. It permits the selectivity of the inhibitory effect on 5-LO or cyclooxygenase to be assessed.

5-LO [1] = target: T2, 5-LO (Rattus norvegicus, UniProt P12527); test: Test (c): ex vivo assay after (usually oral) administration, blood challenged with A23187, LTB4 radioimmunoassay; format: in vivo
T2 construct: blood collection, heparinisation, challenge with A23187 and radioimmunoassay of LTB4 and TxB2; endogenous in cells
T2 sequence (P12527 1-673): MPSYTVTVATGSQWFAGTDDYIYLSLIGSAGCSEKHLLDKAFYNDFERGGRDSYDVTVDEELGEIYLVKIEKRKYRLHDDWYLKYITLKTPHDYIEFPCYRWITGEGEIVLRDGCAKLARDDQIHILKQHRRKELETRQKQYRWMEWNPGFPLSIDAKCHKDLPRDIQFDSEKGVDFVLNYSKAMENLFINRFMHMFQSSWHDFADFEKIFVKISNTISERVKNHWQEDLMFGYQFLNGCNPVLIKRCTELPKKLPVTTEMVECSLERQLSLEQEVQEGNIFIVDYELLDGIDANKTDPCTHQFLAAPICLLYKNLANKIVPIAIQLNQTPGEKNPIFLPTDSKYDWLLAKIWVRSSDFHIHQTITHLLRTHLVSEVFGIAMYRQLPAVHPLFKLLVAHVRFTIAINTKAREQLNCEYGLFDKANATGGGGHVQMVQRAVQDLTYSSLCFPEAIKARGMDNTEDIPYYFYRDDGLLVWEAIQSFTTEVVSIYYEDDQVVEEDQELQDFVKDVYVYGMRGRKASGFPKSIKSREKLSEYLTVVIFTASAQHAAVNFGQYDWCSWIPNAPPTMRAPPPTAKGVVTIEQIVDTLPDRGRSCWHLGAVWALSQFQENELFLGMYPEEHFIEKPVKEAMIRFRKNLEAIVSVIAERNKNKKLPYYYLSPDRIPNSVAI
Experimental: (c) An ex vivo assay system, which is a variation of test b) above, involving administration of a test compound (usually orally as the suspension produced when a solution of the test compound in dimethylsulphoxide is added to carboxymethylcellulose), blood collection, heparinisation, challenge with A23187 and radioimmunoassay of LTB4 and TxB2. This test provides an indication of the bioavailability of a test compound as an inhibitor of 5-LO or cyclooxygenase.

5-LO [2] = target: T3, 5-LO (Homo sapiens, UniProt P09917); test: Test (b): heparinised human blood challenged with A23187, LTB4 radioimmunoassay; format: cell-based
T3 construct: heparinised human blood, prior to challenge with the calcium ionophore A23187; endogenous in cells; host or cells: heparinised human whole blood (blood cells, A23187-challenged)
T3 sequence (P09917 1-674): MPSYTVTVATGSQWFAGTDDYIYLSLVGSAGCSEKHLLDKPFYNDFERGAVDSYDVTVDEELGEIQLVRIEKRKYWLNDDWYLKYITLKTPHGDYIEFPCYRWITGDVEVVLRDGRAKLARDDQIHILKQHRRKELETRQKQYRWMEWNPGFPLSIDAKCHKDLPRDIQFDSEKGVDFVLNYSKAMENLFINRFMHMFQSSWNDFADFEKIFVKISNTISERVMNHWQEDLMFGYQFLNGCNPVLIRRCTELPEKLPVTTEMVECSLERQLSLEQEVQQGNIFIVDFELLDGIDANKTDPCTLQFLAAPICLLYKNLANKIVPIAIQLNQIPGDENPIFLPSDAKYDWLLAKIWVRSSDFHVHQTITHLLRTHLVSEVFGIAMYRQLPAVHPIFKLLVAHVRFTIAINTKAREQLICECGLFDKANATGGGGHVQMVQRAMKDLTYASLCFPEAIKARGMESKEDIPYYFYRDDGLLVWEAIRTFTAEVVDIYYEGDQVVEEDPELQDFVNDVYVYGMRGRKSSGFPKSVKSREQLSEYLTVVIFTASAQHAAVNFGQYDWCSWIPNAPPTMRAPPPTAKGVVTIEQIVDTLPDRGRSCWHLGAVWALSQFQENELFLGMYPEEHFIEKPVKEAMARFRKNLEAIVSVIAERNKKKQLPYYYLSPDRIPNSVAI
Experimental: as §1

T1 sequence (P23219 24-599): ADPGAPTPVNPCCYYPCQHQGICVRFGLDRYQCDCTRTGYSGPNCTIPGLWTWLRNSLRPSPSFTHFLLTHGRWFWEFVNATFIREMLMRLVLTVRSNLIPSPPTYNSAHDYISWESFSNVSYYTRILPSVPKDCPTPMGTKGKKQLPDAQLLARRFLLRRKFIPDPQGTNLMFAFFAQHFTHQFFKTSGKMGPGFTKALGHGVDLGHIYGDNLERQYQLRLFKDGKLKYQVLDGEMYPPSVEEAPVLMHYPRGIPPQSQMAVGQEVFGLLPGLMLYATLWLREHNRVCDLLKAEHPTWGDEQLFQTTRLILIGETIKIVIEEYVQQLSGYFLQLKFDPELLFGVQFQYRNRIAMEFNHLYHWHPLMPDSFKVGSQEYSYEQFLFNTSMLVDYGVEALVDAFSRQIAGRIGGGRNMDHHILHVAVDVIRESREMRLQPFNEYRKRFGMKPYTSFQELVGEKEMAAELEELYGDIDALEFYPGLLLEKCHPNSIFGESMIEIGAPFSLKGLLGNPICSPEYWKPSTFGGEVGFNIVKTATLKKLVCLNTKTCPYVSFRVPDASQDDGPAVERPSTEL

- IC50 (cyclooxygenase): > 40000 nM
- ED50 (5-LO [1]): 30 mg/kg
- IC50 (5-LO [2]): 500 nM
Structure (SMILES): CCC(COC)(OC)c1cccc(OCc2ccc3ccccc3c2)c1 (stereo not drawn) [2-methoxy-2-[3-(naphth-2-ylmethoxy)phenyl]but-1-yl methyl ether]

— US5132328A, “Alcohol and ether derivatives” (Imperial Chemical Industries PLC, priority 1988, dated 1992)
